Data: patent US11566028B2, “Bicyclic heterocycles as FGFR inhibitors” (Incyte Corporation, priority 2019, dated 2023)
Like-named read-outs stand apart in the source and are kept apart here.

Experiments:
Format in all cases: biochemical
FGFR2 = FGFR2 (Homo sapiens (Human), UniProt P21802); test: FGFR Enzymatic Assay (FRET peptide phosphorylation), FGFR2
[1] = molecular target: wild-type un-phosphorylated FGFR3 protein (Homo sapiens (Human), UniProt P22607); test: FGFR Enzymatic Assay (FRET peptide phosphorylation), FGFR3; settings: pre-incubated for 4 hours
wild-type un-phosphorylated FGFR3 protein, sequence (P22607 23-806): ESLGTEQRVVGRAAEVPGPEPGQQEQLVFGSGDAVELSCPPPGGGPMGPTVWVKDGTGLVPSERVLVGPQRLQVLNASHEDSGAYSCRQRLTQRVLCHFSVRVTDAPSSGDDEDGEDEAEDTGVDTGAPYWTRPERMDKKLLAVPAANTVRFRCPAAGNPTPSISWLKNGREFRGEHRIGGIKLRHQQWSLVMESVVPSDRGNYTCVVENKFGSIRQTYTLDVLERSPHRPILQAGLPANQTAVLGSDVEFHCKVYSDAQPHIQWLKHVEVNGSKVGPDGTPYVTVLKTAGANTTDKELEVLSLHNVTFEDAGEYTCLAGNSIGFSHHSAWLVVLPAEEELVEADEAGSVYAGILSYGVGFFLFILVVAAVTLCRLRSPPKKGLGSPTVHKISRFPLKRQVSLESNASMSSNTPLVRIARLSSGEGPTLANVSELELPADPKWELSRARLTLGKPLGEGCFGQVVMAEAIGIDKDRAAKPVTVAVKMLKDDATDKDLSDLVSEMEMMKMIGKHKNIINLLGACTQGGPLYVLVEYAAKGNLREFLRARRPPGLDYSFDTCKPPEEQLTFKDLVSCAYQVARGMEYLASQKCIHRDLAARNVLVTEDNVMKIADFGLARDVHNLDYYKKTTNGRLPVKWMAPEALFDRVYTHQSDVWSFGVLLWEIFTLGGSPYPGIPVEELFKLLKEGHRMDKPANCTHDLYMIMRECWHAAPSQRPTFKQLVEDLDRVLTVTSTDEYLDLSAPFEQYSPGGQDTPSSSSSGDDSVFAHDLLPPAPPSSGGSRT

FGFR1 = FGFR1 (Homo sapiens (Human), UniProt P11362); test: FGFR Enzymatic Assay (FRET peptide phosphorylation), FGFR1; settings: pre-incubated for 4 hours
FGFR1, sequence (P11362 22-822): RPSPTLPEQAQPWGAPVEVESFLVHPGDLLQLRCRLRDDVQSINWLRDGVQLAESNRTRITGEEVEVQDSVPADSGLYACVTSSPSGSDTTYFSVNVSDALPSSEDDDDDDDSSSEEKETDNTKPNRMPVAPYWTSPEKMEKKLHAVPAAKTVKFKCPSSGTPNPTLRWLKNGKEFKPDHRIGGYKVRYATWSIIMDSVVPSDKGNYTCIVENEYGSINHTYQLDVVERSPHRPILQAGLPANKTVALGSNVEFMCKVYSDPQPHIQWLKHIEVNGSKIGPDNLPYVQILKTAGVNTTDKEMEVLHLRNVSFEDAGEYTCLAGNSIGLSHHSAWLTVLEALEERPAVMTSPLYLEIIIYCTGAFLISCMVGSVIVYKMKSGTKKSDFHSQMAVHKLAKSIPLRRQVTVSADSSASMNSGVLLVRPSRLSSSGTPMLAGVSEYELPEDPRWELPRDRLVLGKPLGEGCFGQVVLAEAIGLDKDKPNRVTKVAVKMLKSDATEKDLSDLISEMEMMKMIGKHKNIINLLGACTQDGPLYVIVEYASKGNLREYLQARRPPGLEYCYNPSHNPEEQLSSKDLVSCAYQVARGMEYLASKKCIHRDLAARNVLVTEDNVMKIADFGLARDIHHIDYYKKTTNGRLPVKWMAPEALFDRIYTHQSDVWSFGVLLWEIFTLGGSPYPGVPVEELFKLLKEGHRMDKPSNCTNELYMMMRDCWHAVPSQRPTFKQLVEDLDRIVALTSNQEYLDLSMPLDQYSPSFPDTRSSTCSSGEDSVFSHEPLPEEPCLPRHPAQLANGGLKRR

FGFR2, sequence (P21802 22-821): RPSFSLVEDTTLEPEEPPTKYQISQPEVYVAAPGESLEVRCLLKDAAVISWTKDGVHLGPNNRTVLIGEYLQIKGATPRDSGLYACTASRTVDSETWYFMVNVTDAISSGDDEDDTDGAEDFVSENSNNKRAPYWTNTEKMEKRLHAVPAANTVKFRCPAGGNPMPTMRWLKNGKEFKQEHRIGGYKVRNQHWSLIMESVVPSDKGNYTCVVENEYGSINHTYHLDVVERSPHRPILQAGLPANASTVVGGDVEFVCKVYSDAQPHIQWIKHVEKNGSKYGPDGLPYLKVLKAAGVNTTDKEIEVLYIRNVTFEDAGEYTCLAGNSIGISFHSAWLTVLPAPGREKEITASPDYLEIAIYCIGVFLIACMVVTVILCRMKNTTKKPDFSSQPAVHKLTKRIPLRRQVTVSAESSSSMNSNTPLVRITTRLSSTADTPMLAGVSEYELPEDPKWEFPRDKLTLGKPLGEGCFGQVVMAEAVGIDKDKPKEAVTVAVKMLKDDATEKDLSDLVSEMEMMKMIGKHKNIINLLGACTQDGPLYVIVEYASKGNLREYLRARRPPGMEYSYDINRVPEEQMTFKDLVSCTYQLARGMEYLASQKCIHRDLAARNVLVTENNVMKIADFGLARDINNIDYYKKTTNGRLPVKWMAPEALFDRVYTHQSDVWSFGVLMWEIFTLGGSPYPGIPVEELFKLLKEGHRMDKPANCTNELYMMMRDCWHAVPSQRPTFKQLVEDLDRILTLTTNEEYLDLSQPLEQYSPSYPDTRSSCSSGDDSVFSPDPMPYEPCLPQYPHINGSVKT

IC50 [1]	IC50 (FGFR1)	IC50 (FGFR2; pre-incubated for 4 hours)	Compound	IC50 (FGFR2)
< 10 nM	< 10 nM	< 10 nM	[2H]C([2H])([2H])NC(=O)c1cc(C)c(F)c(-c2cnn3cc(-c4cnn(C5CCN(C(C)C)CC5)n4)c(N[C@H]4CCOC4)nc23)c1 [Example 67, (S)-4-Fluoro-3-(6-(2-(1-isopropylpiperidin-4-yl)-2H-1,2,3-triazol-4-yl)-5-((tetrahydrofuran-3-yl)amino)pyrazolo[1,5-a]pyrimidin-3-yl)-5-methyl-N-(methyl-d3)benzamide]	
	≥ 200 nM	30 to 200 nM	CNC(=O)c1cc(C#N)cc(-c2cnn3cc(-c4cncc(C)c4)c(O[C@H]4CCOC4)nc23)c1 [Example 29, (S)-3-Cyano-N-methyl-5-(6-(5-methylpyridin-3-yl)-5-((tetrahydrofuran-3-yl)oxy)pyrazolo[1,5-a]pyrimidin-3-yl)benzamide]	
	≥ 200 nM	10 to 30 nM	CNC(=O)c1cc(C#N)cc(-c2cnn3cc(-c4cccnc4)c(O[C@H]4CCOC4)nc23)c1 [Example 27, (S)-3-Cyano-N-methyl-5-(6-(pyridin-3-yl)-5-((tetrahydrofuran-3-yl)oxy)pyrazolo[1,5-a]pyrimidin-3-yl)benzamide]	
< 10 nM	10 to 30 nM	< 10 nM	CNC(=O)c1cc(-c2cnn3cc(-c4cnn(CCOC)c4)c(N[C@H]4CCOC4)nc23)c(F)c(C(F)F)c1 [Example 50, (S)-3-(Difluoromethyl)-4-fluoro-5-(6-(1-(2-methoxyethyl)-1H-pyrazol-4-yl)-5-((tetrahydrofuran-3-yl)amino)pyrazolo[1,5-a]pyrimidin-3-yl)-N-methylbenzamide]	
< 10 nM	10 to 30 nM	< 10 nM	CNC(=O)c1cncc(-c2cnn3cc(-c4cnn(C5CCC5)c4)c(O[C@H]4CCOC4)nc23)c1 [Example 22, (S)-5-(6-(1-Cyclobutyl-1H-pyrazol-4-yl)-5-((tetrahydrofuran-3-yl)oxy)pyrazolo[1,5-a]pyrimidin-3-yl)-N-methylnicotinamide]	
< 10 nM	10 to 30 nM	< 10 nM	CNC(=O)c1cc(O)c(F)c(-c2cnn3cc(-c4cnn(C)c4)c(O[C@H]4CCOC4)nc23)c1 [Example 31, (S)-4-Fluoro-3-hydroxy-N-methyl-5-(6-(1-methyl-1H-pyrazol-4-yl)-5-((tetrahydrofuran-3-yl)oxy)pyrazolo[1,5-a]pyrimidin-3-yl)benzamide]	
< 10 nM	10 to 30 nM	< 10 nM	CNC(=O)c1cc(C#N)cc(-c2cnn3cc(-c4cnn(C)c4)c(O[C@H]4CCOC4)nc23)c1 [Example 6, (S)-3-Cyano-N-methyl-5-(6-(1-methyl-1H-pyrazol-4-yl)-5-((tetrahydrofuran-3-yl)oxy)pyrazolo[1,5-a]pyrimidin-3-yl)benzamide]	
< 10 nM	10 to 30 nM	< 10 nM	CCn1cc(-c2cn3ncc(-c4cc(C(=O)NC)cc(C(F)F)c4F)c3nc2N[C@H]2CCOC2)cn1 [Example 48, (S)-3-(Difluoromethyl)-5-(6-(1-ethyl-1H-pyrazol-4-yl)-5-((tetrahydrofuran-3-yl)amino)pyrazolo[1,5-a]pyrimidin-3-yl)-4-fluoro-N-methylbenzamide]	
< 10 nM	30 to 200 nM		CNC(=O)c1cncc(-c2cnn3cc(-c4cnn(C)c4)c(N[C@H]4CCOC4)nc23)c1 [Example 7, (S)—N-Methyl-5-(6-(1-methyl-1H-pyrazol-4-yl)-5-((tetrahydrofuran-3-yl)amino)pyrazolo[1,5-a]pyrimidin-3-yl)nicotinamide]	
< 10 nM	30 to 200 nM	< 10 nM	CNC(=O)c1cc(C)c(F)c(-c2cnn3cc(-c4cnn(C)c4)c(N[C@H]4CCOC4)nc23)c1 [Example 16, (S)-4-Fluoro-N,3-dimethyl-5-(6-(1-methyl-1H-pyrazol-4-yl)-5-((tetrahydrofuran-3-yl)amino)pyrazolo[1,5-a]pyrimidin-3-yl)benzamide]	
< 10 nM	< 10 nM	< 10 nM	CNC(=O)c1cc(-c2cnn3cc(-c4cnn(C5CN(C)C5)c4)c(O[C@H]4CCOC4)nc23)c(F)c(C(F)F)c1 [Example 26, (S)-3-(Difluoromethyl)-4-fluoro-N-methyl-5-(6-(1-(1-methylazetidin-3-yl)-1H-pyrazol-4-yl)-5-((tetrahydrofuran-3-yl)oxy)pyrazolo[1,5-a]pyrimidin-3-yl)benzamide]	
< 10 nM	30 to 200 nM	< 10 nM	CNC(=O)c1cc(C)c(F)c(-c2cnn3cc(-c4cnc(C5(F)CCN(C)CC5)o4)c(N[C@H]4CCOC4)nc23)c1 [Example 69, (S)-4-Fluoro-3-(6-(2-(4-fluoro-1-methylpiperidin-4-yl)oxazol-5-yl)-5-((tetrahydrofuran-3-yl)amino)pyrazolo[1,5-a]pyrimidin-3-yl)-N,5-dimethylbenzamide]	
< 10 nM	≥ 200 nM	10 to 30 nM	CNC(=O)c1cc(C#N)cc(-c2cnn3cc(-c4ccc(C)nc4)c(O[C@H]4CCOC4)nc23)c1 [Example 28, (S)-3-Cyano-N-methyl-5-(6-(6-methylpyridin-3-yl)-5-((tetrahydrofuran-3-yl)oxy)pyrazolo[1,5-a]pyrimidin-3-yl)benzamide]	
< 10 nM	< 10 nM	< 10 nM	CNC(=O)c1cc(C)c(F)c(-c2cnn3cc(-c4cnn(C)c4)c(O[C@H]4CCOC4)nc23)c1 [Example 5, (S)-4-Fluoro-N,3-dimethyl-5-(6-(1-methyl-1H-pyrazol-4-yl)-5-((tetrahydrofuran-3-yl)oxy)pyrazolo[1,5-a]pyrimidin-3-yl)benzamide]	
< 10 nM	30 to 200 nM	< 10 nM	CNC(=O)c1cncc(-c2cnn3cc(-c4cnn(C5CC5)c4)c(O[C@H]4CCOC4)nc23)c1 [Example 21, (S)-5-(6-(1-Cyclopropyl-1H-pyrazol-4-yl)-5-((tetrahydrofuran-3-yl)oxy)pyrazolo[1,5-a]pyrimidin-3-yl)-N-methylnicotinamide]	
< 10 nM	< 10 nM	< 10 nM	CNC(=O)c1cc(F)c(F)c(-c2cnn3cc(-c4cnn(C5CCN(C)CC5)c4)c(O[C@H]4CCOC4)nc23)c1 [Example 11, (S)-3,4-Difluoro-N-methyl-5-(6-(1-(1-methylpiperidin-4-yl)-1H-pyrazol-4-yl)-5-((tetrahydrofuran-3-yl)oxy)pyrazolo[1,5-a]pyrimidin-3-yl)benzamide]	
≥ 200 nM	≥ 200 nM	30 to 200 nM	CNC(=O)c1cc(-c2cnn3cc(-c4cnn(C5CCC5)c4)c(O[C@H]4CCOC4)nc23)cc(S(C)(=O)=O)c1 [Example 32, (S)-3-(6-(1-Cyclobutyl-1H-pyrazol-4-yl)-5-((tetrahydrofuran-3-yl)oxy)pyrazolo[1,5-a]pyrimidin-3-yl)-N-methyl-5-(methylsulfonyl)benzamide]	
	≥ 200 nM	10 to 30 nM	CNC(=O)c1cc(C)c(F)c(-c2cnn3cc(-c4ccnnc4)c(N[C@H]4CCOC4)nc23)c1 [Example 44, (S)-4-Fluoro-N,3-dimethyl-5-(6-(pyridazin-4-yl)-5-((tetrahydrofuran-3-yl)amino)pyrazolo[1,5-a]pyrimidin-3-yl)benzamide]	
< 10 nM	30 to 200 nM		CNC(=O)c1cncc(-c2cnn3cc(-c4cnn(C(C)C)c4)c(N[C@H]4CCOC4)nc23)c1 [Example 10, (S)-5-(6-(1-Isopropyl-1H-pyrazol-4-yl)-5-((tetrahydrofuran-3-yl)amino)pyrazolo[1,5-a]pyrimidin-3-yl)-N-methylnicotinamide]	
< 10 nM	30 to 200 nM		CNC(=O)c1cc(C#N)cc(-c2cnn3cc(-c4cnn(C)c4)c(N[C@H]4CCOC4)nc23)c1 [Example 8, (S)-3-Cyano-N-methyl-5-(6-(1-methyl-1H-pyrazol-4-yl)-5-((tetrahydrofuran-3-yl)amino)pyrazolo[1,5-a]pyrimidin-3-yl)benzamide]	
	≥ 200 nM	10 to 30 nM	CNC(=O)c1cc(-c2cnn3cc(-c4cnc(NC)c(C)c4)c(O[C@H]4CCOC4)nc23)c(F)c(C(F)F)c1 [Example 24, (S)-3-(Difluoromethyl)-4-fluoro-N-methyl-5-(6-(5-methyl-6-(methylamino)pyridin-3-yl)-5-((tetrahydrofuran-3-yl)oxy)pyrazolo[1,5-a]pyrimidin-3-yl)benzamide]	

Compound	IC50 [1]	IC50 (FGFR1)	IC50 (FGFR2; pre-incubated for 4 hours)	IC50 (FGFR2)
CNC(=O)c1cc(F)c(F)c(-c2cnn3cc(-c4cnn(CCN5CCOCC5)c4)c(O[C@H]4CCOC4)nc23)c1 [Example 14, (S)-3,4-Difluoro-N-methy1-5-(6-(1-(2-morpholinoethyl)-1H-pyrazol-4-y1)-5-((tetrahydrofuran-3-yl)oxy)pyrazolo[1,5-a]pyrimidin-3-yl)benzamide]	< 10 nM	< 10 nM		< 10 nM
CNC(=O)c1cc(F)c(F)c(-c2cnn3cc(-c4ccc(N5CCN(C)CC5)nc4)c(O[C@H]4CCOC4)nc23)c1 [Example 13, (S)-3,4-Difluoro-N-methy1-5-(6-(6-(4-methylpiperazin-1-yl)pyridin-3-y1)-5-((tetrahydrofuran-3-yl)oxy)pyrazolo[1,5-a]pyrimidin-3-yl)benzamide]	< 10 nM	10 to 30 nM	< 10 nM	
CNC(=O)c1cc(F)c(F)c(-c2cnn3cc(-c4cnn(CC5CCOCC5)c4)c(N[C@H]4CCOC4)nc23)c1 [Example 54, (S)-3,4-Difluoro-N-methyl-5-(6-(1-((tetrahydro-2H-pyran-4-yl)methyl)-1H-pyrazol-4-y1)-5-((tetrahydrofuran-3-yl)amino)pyrazolo[1,5-a]pyrimidin-3-yl)benzamide]	< 10 nM	< 10 nM		< 10 nM
CNC(=O)c1cc(F)c(F)c(-c2cnn3cc(-c4ccc(N5CCN(C)CC5)cc4)c(O[C@H]4CCOC4)nc23)c1 [Example 12, (S)-3,4-Difluoro-N-methy1-5-(6-(4-(4-methylpiperazin-1-yl)pheny1)-5-((tetrahydrofuran-3-yl)oxy)pyrazolo[1,5-a]pyrimidin-3-yl)benzamide]	< 10 nM	< 10 nM		< 10 nM
